Where two headings read alike, the source gives them in different places.
Tests used:
[1] = Permeability in wild type MDCK monolayers; assay type: in vitro ADME; settings: dog; wild type MDCK, apical to basolateral, 10 μM, pH 7.4; read-out: MDCK-WT Papp A-B
Procedure: (§1) The MDR1-MDCKII and wild type MDCKII cell lines were cultured in accordance with the guidelines provided by Solvo Biotechnology. Both wild-type MDCK and MDR1-MDCK cells were seeded at a cell density of 2.3×10^5 cells/well into 24-well Transwell plates and cultured for three days to form monolayers. Test compound was loaded into the donor compartments of the Transwell plate (24-well) bearing MDR1-MDCK or wild type MDCK monolayers. Test compound was added to either the apical or basolateral chambers of the Transwell plate assembly at a concentration of 10 μM in Hanks' Balanced Salt Solution containing 25 mM HEPES (pH 7.4). Lucifer Yellow was added to the apical buffer in all wells and its permeation monitored to assess integrity of the cell layer. As Lucifer Yellow (LY) cannot freely permeate lipophilic barriers, a high degree of LY transport indicates poor integrity of the cell layer and wells with LY permeability >100 nm/s are rejected.

[2] = system: wild type MDCKII cell line; experiment: Permeability in wild type MDCK monolayers; assay type: in vitro ADME; settings: MDCK study; in words
Procedure: as §1

[3] = Liver microsomal stability (human); assay type: in vitro ADME
Procedure: Incubations of test compound (1 μM initial concentration, n=2) were carried out with pooled hepatic liver microsomes (0.25 mg protein/mL in 0.1 M phosphate buffer pH7.4). NADPH (1 mM) was added to initiate the reactions. The incubations were performed at 37° C. Samples (100 μL) were taken from the incubation at 0, 5, 10, 20 and 40 min and added to 100 μL of acetonitrile containing carbamazepine as analytical internal standard, to terminate the reaction. Samples were centrifuged and the supernatant fractions analyzed using LC-MS/MS.
(§2) For all incubations, the instrument response (i.e. chromatographic peak area or peak height, normalized by internal standard), at each time-point were referenced to the zero time-point samples (as 100%) in order to determine the percentage of compound remaining at that time-point. Plots of the natural logarithm (Ln) of the percent of parent remaining for each compound, versus time, were used to determine the half-life in the incubation of interest.
(§3) Half-life values (t1/2) were calculated from the relationship: t1/2 (min)=−0.693/λ where λ was the slope of the Ln concentration versus time curve.
For incubations in hepatic liver microsomes, the in vitro intrinsic clearance, Clint (μL/min/mg microsomal protein), was calculated using the following formula:
Clint=(0.693/t1/2 microsomal)*(ml incubation/mg microsomal protein)*(mg microsomal protein/g liver)*(g liver/kg body weight)

Plasma stability (mouse) = assay type: in vitro ADME; settings: pooled plasma
Procedure: (§4) Incubations of test compound (1 μM initial concentration, n=2) were carried out with pooled plasma or BSA (45 mg/mL in 0.1 M phosphate buffered saline pH 7.4). The incubations were performed at 37° C. Samples (50 μL) were obtained from the incubation at 0, 10, 30, 120, 240, 360 and 1440 min, and added to 150 μL of acetonitrile containing carbamazepine as analytical internal standard to terminate the reaction. Samples were centrifuged and the supernatant fractions analyzed using LC-MS/MS.
as §2, §3

Plasma stability (human) = assay type: in vitro ADME; settings: pooled plasma
Procedure: as §4, §2, §3

kinetic solubility assay = assay type: physicochemical
human TG2 = biological target: T1, human TG2 (Homo sapiens, UniProt P21980); experiment: fluorescent screening assay for human TG2; assay type: biochemical
T1 sequence (P21980 1-687): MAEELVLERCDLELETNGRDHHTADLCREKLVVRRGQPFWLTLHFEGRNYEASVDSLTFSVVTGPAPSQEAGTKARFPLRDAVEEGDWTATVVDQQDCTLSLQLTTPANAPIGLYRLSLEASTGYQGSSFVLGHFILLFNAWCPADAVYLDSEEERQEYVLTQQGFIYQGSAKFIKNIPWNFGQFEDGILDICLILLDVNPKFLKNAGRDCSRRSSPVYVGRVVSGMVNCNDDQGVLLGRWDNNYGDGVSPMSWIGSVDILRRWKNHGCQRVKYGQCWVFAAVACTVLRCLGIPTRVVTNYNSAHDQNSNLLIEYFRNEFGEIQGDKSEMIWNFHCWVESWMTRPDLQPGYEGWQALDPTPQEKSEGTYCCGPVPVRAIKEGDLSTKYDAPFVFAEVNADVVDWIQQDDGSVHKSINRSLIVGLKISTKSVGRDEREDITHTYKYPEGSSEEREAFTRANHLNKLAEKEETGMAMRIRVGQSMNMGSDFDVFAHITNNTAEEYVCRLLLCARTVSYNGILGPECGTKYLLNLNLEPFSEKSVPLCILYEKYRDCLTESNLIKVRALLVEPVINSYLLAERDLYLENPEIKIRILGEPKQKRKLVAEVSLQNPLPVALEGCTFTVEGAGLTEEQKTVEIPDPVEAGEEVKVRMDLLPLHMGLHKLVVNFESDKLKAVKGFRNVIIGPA
Procedure: The fluorescent screening assay for human TG2 was performed as described herein: Assay conditions were 20 nM TG2, 8 μM N,N-dimethylated Casein (NMC) and 16 μM K×D (used for all transglutaminase assays) in 25 mM Hepes, pH 7.4, 250 mM NaCl, 2 mM MgCl2, 0.5 mM CaCl2, 0.2 mM DTT, 0.05% Pluronic F-127 at 37° C. A time point was taken with a microplate reader (Safire or Ultra, Tecan; ex: 350 nm, em: 535 nm) every 3 minutes for up to 2 hours and the initial linear reaction progress was used to determine the reaction velocity as a measure for enzyme activity. Assay conditions were identical for human TG6 and similar for human TG1 and mouse TG2 apart from enzyme concentration (mTG2 at 5 nM; TG1 at 10 nM) and CaCl2 concentration (0.2 mM for mTG2; 0.05 mM for TG1). Factor XIIIa was activated using 0.1 μg/μl thrombin (Sigma) in 35 mM Tris pH 8.0 for 20 min at 30° C. and the transamidation reaction was performed with 20 nM Factor XIIIa in 50 mM Tris pH 8.0, 1.25 mM CaCl2, 0.05% Pluronic, 0.2 mM DTT. TG3 was activated with 0.02 μg/μl thrombin under the same conditions as Factor XIIIa and assay conditions were 10 nM TG3 in 50 mM Hepes, pH 8, 20 mM CaCl2, 0.2 mM DTT, 0.05% Pluronic F-127.

P-glycoprotein (P-gp) = biological target: T2, P-glycoprotein (P-gp) (Homo sapiens, UniProt P08183); experiment: Effective efflux ratio in MDCK-MDR1; assay type: in vitro ADME
T2 construct: host or cells: MDCKII (MDR1-MDCKII)
Procedure: as §1
P-glycoprotein (P-gp) is one of the main efflux transporters in brain; the potential for compound 1 and compound 2 to be effluxed by P-gp was assessed in an MDCK-MDR1 transfected cell line.

[4] = Table 7, 20 nM TG2, 37° C., read-out: IC50

T2 sequence (P08183 whole entry): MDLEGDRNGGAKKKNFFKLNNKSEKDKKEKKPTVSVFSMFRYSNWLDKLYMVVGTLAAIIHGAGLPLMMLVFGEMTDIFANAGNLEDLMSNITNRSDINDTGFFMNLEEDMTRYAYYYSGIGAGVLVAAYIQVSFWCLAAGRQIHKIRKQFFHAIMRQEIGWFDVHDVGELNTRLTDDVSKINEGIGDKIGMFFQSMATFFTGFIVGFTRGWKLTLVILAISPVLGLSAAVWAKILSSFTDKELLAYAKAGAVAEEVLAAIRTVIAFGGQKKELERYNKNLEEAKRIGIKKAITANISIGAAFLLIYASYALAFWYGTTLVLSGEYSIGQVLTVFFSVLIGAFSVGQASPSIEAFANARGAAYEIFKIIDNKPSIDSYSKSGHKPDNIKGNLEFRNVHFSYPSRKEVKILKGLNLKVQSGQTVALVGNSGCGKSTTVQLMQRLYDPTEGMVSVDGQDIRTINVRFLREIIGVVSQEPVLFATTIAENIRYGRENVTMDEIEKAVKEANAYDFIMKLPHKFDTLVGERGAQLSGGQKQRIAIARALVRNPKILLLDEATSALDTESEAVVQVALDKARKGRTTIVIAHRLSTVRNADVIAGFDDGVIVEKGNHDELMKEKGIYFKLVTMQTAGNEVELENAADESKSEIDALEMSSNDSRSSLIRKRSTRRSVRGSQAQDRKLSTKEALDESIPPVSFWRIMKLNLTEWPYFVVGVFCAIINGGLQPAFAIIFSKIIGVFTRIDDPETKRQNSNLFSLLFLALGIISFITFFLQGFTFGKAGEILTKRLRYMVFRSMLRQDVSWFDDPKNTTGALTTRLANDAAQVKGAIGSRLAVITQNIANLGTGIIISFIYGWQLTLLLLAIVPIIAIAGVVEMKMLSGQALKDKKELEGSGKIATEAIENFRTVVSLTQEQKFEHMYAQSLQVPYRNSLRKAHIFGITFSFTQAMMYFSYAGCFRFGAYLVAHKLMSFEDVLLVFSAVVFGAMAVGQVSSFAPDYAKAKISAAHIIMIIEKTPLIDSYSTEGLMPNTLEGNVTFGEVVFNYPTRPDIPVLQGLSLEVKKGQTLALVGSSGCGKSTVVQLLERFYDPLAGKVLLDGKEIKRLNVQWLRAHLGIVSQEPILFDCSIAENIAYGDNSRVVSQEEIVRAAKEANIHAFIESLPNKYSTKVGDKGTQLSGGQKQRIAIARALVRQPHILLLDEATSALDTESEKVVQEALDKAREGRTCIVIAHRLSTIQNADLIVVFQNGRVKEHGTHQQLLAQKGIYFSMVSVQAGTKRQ

| SMILES | IC50 (human TG2; [4]) [nM] | also measured |
| --- | --- | --- |
| C=CC(=O)NCCCC[C@H](NC(=O)OCc1ccc(C)cc1)C(=O)O [(2S)-2-({[(4-methylphenyl)methoxy]carbonyl}amino)-6-(prop-2-enamido)hexanoic acid] | 1000 to 100000 |  |
| C=CC(=O)NCCCC[C@H](NC(=O)OCc1ccccc1)C(=O)N1CCC1 [benzyl N-[(2S)-1-(azetidin-1-yl)-1-oxo-6-(prop-2-enamido)hexan-2-yl]carbamate] | 1000 to 100000 |  |
| C=CC(=O)NCCCC[C@H](NC(=O)OCc1ccc2ccccc2c1)C(=O)O [(2S)-2-{[(naphthalen-2-ylmethoxy)carbonyl]amino}-6-(prop-2-enamido)hexanoic acid] | 1000 to 100000 |  |
| C=CC(=O)Nc1ccc(C[C@H](NC(=O)OCc2ccccc2)C(=O)O)cc1 [(2S)-2-{[(benzyloxy)carbonyl]amino}-3-[4-(prop-2-enamido)phenyl]propanoic acid] | 1000 to 100000 |  |
| C=CC(=O)NCCC1C[C@@H](C(=O)OC)N(C(=O)OC(C)(C)C)C1 (stereo partly drawn) [1-tert-butyl 2-methyl (2S)-4-[2-(prop-2-enamido)ethyl]pyrrolidine-1,2-dicarboxylate] | 1000 to 100000 |  |
| C=CC(=O)NCCCC[C@H](NC(=O)OCc1c(F)cccc1F)C(=O)O [(2S)-2-({[(2,6-difluorophenyl)methoxy]carbonyl}amino)-6-(prop-2-enamido)hexanoic acid] | 1000 to 100000 |  |
| C=CC(=O)NCCCC[C@H](NC(=O)OCc1cccc2ccccc12)C(=O)O [(2S)-2-{[(naphthalen-1-ylmethoxy)carbonyl]amino}-6-(prop-2-enamido)hexanoic acid] | 1000 to 100000 |  |
| C=CC(=O)NCCCC[C@H](NC(=O)OCc1ccccc1)C(=O)NC1C2CC3CC(C2)CC1C3 (stereo partly drawn) [benzyl N-[(1S)-1-[(adamantan-2-yl)carbamoyl]-5-(prop-2-enamido)pentyl]carbamate] | 1000 to 100000 |  |
| C=CC(=O)NCCCC[C@H](NC(=O)OC)C(=O)O [(2S)-2-[(methoxycarbonyl)amino]-6-(prop-2-enamido)hexanoic acid] | 1000 to 100000 |  |

Now from value to compound, other results behind:

| IC50 (human TG2; [4]) [nM] | SMILES | also measured |
| --- | --- | --- |
| < 100 | C=CC(=O)NCCCC[C@H](NC(=O)OCc1ccccc1)C(=O)N1CCN(c2ccccc2Cl)CC1 [compound 1, benzyl N-[(2S)-1-[4-(2-chlorophenyl)piperazin-1-yl]-1-oxo-6-(prop-2-enamido)hexan-2-yl]carbamate] | Papp A→B at 10 μM [1]: 14.2 ×10⁻⁶ cm/s; permeability [2]: good permeability; metabolic stability in liver microsomal stability testing ([3]; human, in words): poor; microsomal CLint at 1 μM ([3]; pooled liver microsomes, pH 7.4, human liver microsomes, 1 μM, 0.25 mg protein/mL, NADPH, read-out: hLM Clint): > 1390 µL/min/mg; half-life at 1 μM (Plasma stability (mouse); mouse plasma, 1 μM, 37° C., read-out: Mouse Plasma T1/2): > 24 h; half-life at 1 μM (Plasma stability (mouse); read-out: half-life in mouse plasma): > 24 h; half-life at 1 μM (Plasma stability (human); human plasma, 1 μM, 37° C., read-out: Human Plasma T1/2): > 24 h; half-life at 1 μM (Plasma stability (human); read-out: half-life in human plasma): > 24 h; solubility in a kinetic solubility assay (kinetic solubility assay; in words): good solubility; Aq. Sol. (kinetic solubility assay; kinetic solubility): 0.87 mg/mL; IC50 (human TG2; Table 8, read-out: TG2 IC50): 14 nM; active efflux via P-gp (P-glycoprotein (P-gp); MDCK-MDR1 transfected cell line, in words): high active efflux; MDCK-MDR1 EER (P-glycoprotein (P-gp); effective efflux ratio, 10 μM): 118 |
| 1000 to 100000 | C=CC(=O)NCCCC[C@H](NC(=O)OCc1ccc(F)cc1Cl)C(=O)O [(2S)-2-({[(2-chloro-4-fluorophenyl)methoxy]carbonyl}amino)-6-(prop-2-enamido)hexanoic acid] |  |
| 1000 to 100000 | C=CC(=O)NCCCC[C@H](NC(=O)OCc1ccc(C(C)(C)C)cc1)C(=O)O [(2S)-2-({[(4-tert-butylphenyl)methoxy]carbonyl}amino)-6-(prop-2-enamido)hexanoic acid] |  |
| 100 to 1000 | C=CC(=O)NCCCC[C@H](NC(=O)OCc1ccccc1)C(=O)N1CCN(c2ncccc2C)CC1 [benzyl N-[(2S)-1-[4-(3-methylpyridin-2-yl)piperazin-1-yl]-1-oxo-6-(prop-2-enamido)hexan-2-yl]carbamate] |  |
| 100 to 1000 | C=CC(=O)NCCCC[C@H](NC(=O)OCc1ccccc1)C(=O)N1CCN(C)CC1 [benzyl N-[(2S)-1-(4-methylpiperazin-1-yl)-1-oxo-6-(prop-2-enamido)hexan-2-yl]carbamate] |  |
| 100 to 1000 | C=CC(=O)NCCCC[C@H](NC(=O)OCc1ccccc1)C(=O)N1CCN(c2ncccc2C(F)(F)F)CC1 [benzyl N-[(2S)-1-oxo-6-(prop-2-enamido)-1-{4-[3-(trifluoromethyl)pyridin-2-yl]piperazin-1-yl}hexan-2-yl]carbamate] |  |
| < 100 | C=CC(=O)NCCCC[C@H](NC(=O)OCc1ccccc1)C(=O)N1CCC(c2ccccc2)CC1 [benzyl N-[(2S)-1-oxo-1-(4-phenylpiperidin-1-yl)-6-(prop-2-enamido)hexan-2-yl]carbamate] |  |
| 100 to 1000 | C=CC(=O)NCCCC[C@H](NC(=O)OCc1ccccc1)C(=O)N1CCCCCC1 [benzyl N-[(2S)-1-(azepan-1-yl)-1-oxo-6-(prop-2-enamido)hexan-2-yl]carbamate] |  |
| < 100 | C=CC(=O)NCCCC[C@H](NC(=O)OCc1ccccc1)C(=O)N1CCN(C(=O)C23CC4CC(CC(C4)C2)C3)CC1 [benzyl N-[(2S)-1-[4-(adamantane-1-carbonyl)piperazin-1-yl]-1-oxo-6-(prop-2-enamido)hexan-2-yl]carbamate] |  |

From patent US20150232420A1, “TRANSGLUTAMINASE TG2 INHIBITORS, PHARMACEUTICAL COMPOSITIONS, AND METHODS OF USE THEREOF” (priority 2012, published 2015)
